Key:
K562 cell lysate [1] = test: Single temperature point TPP target identification, 25 drugs pooled into 14 mixture systems (Example 2); format: binding; conditions: 25 compounds in 14 mixture systems (each in 4), remaining steps as Example 1 (40 μM, K562 cell lysate, 52° C., LASSO β threshold 0.1); — = no target identified
Method: In step S04: DMSO as a solvent was added to each mixture system in step S03 to enable a concentration of each drug to reach 40 μM, and then the single temperature point TPP method is applied to measure the interaction between each mixture system and the protein. The specific experimental steps are that: equal amounts of K562 cell lysate were mixed with a drug mixture system, incubated at room temperature for 10 minutes, then heated at 52° C. for 3 minutes, and then quickly cooled to 4° C. on a PCR machine. The samples were centrifuged at 21,000 rcf for 20 minutes at 4° C., and the supernatant was collected. According to the mass spectrometry-based proteomics quantification method, each sample was enzymatically digested and TMT labeled, and then the LC-MS mass spectrometry was used for measurement to obtain the content of protein. […] Therefore, if a protein can interact with the mixed system, then the content of protein measured by mass spectrometry will be higher, and vice versa.
(§1) In step S05: Nine measured values Yi obtained from the interaction between the nine mixture systems and the target protein are marked as response vectors Y; the response vectors Y were normalized so that the numerical values of the response vectors are between 0 and 1. The response vector Y and the permutation matrix S meet a relational expression of:
Where, λ is a penalty term, which is used to adjust a compression degree of β, in this embodiment, the value of λ is 0.1 and the threshold is 0.1.
It is assumed that the above twenty-five compounds to be tested are mixed into fourteen mixture systems: mixture system 1, mixture system 2, mixture system 3, . . . and mixture system 14. Each compound to be tested was included in four different mixture systems. That is, m=14, n=25, a=4. […] In FIG. 5, the black grid represents the numerical value of 1, and the white grid represents the numerical value of 0. […] The twenty-five compounds to be tested were mixed according to the finally obtained 14×25 optimized permutation matrix S shown in FIG. 5, to obtain fourteen mixture systems.

K562 cell lysate [2] = test: Single temperature point TPP target identification, 15 drugs pooled into 9 mixture systems (Example 1); format: binding; conditions: 15 compounds in 9 mixture systems (each in 3), each drug 40 μM, heated at 52° C. for 3 minutes, LASSO β threshold 0.1, — = no target identified
Description: In step S01: Fifteen drugs to be tested (i.e., the compounds to be tested) were given: Palbociclib, Panobinostat, Raltitrexed, Methotrexate, Vemurafenib, Fimepinostat, SCIO-469, SL-327, 5-Fluorouracil, Olaparib, Belumosudil, OTS964, Parthenolide, CCT137690, […], which are sequentially numbered as compound to be tested 1, compound to be tested 2, compound to be tested 3, . . . and compound to be tested 15. It is assumed here that the above fifteen compounds to be tested are mixed into nine mixture systems: mixture system 1, mixture system 2, mixture system 3, . . . and mixture system 9, and each compound to be tested was included in three different mixture systems, that is, m=9, n=15, a=3. The nine mixture systems are mapped into a 9x15 initial permutation matrix A of the compounds to be tested, and the initial permutation matrix A is randomly initialized so that the numerical values in the matrix A are random floating-point numbers between 0 and 1.
The initial permutation matrix A of the compounds to be tested was iteratively optimized through a genetic algorithm to minimize the value of the objective function L; the permutation matrix A is subjected to the binary conversion in step S02 when the value of the objective function L is the minimum to obtain the optimized permutation matrix S (as shown in FIG. 3), the optimized permutation matrix S is the final permutation matrix. […] In FIGS. 2 and 3, the black grid represents the numerical value 1, and the white grid represents the numerical value 0. During the iteration process, the value of the objective function L decreases to a constant value as the number of iterations increases, as shown in FIG. 4. The fifteen compounds to be tested were mixed according to the finally-obtained 9×15 optimized permutation matrix shown in FIG. 3, and nine mixture systems were obtained.
In step S04: DMSO as a solvent was added to each mixture system in step S03 to enable a concentration of each drug to reach 40 μM, and then the single temperature point TPP method is applied to measure the interaction between each mixture system and the protein. The specific experimental steps are that: equal amounts of K562 cell lysate were mixed with a drug mixture system, incubated at room temperature for 10 minutes, then heated at 52° C. for 3 minutes, and then quickly cooled to 4° C. on a PCR machine. The samples were centrifuged at 21,000 rcf for 20 minutes at 4° C., and the supernatant was collected. According to the mass spectrometry-based proteomics quantification method, each sample was enzymatically digested and TMT labeled, and then the LC-MS mass spectrometry was used for measurement to obtain the content of protein. Based on the principle of the TPP method, the thermal stability of the protein can be improved through a combination with compounds. Therefore, if a protein can interact with the mixed system, then the content of protein measured by mass spectrometry will be higher, and vice versa.
as §1
Where, Yi represents a response value of the ability of the mixture system identified as i among the nine mixture systems to interact with the target protein, and βj is a contribution of the compound to be tested identified as j in the mixture system identified as i to the response value of the mixture system identified as i, βj is a coefficient vector with a length n, and R is a residual vector with a length […].
the LASSO regression method is applied to obtain an optimal solution of β based on the following expression: […]

Row | Compound | Successfully Identified Target(s) (K562 cell lysate [1]) | Successfully Identified Target(s) (K562 cell lysate [2])
1 | O=C(c1cc(Cc2n[nH]c(=O)c3ccccc23)ccc1F)N1CCN(C(=O)C2CC2)CC1 [Olaparib] | PARP1 | PARP1
2 | C[C@@H]1CN(Cc2ccc(F)cc2)[C@@H](C)CN1C(=O)c1cc2c(C(=O)C(=O)N(C)C)cn(C)c2cc1Cl [SCIO-469] | MAPK14 | MAPK14
3 | Cc1cc(CN2CCN(c3c(Br)cnc4nc(-c5ccc(N6CCN(C)CC6)cc5)[nH]c34)CC2)no1 [CCT137690] | – | AURKA
4 | COC(=O)N[C@@H](C)CNc1nccc(-c2cn(C(C)C)nc2-c2cc(Cl)cc(NS(C)(=O)=O)c2F)n1 [Encorafenib] | BRAF | –
5 | CC(C)(C)Cn1c(N)nc2ccc(-c3[nH]c(C(C)(C)C)nc3-c3ccc(F)cc3)nc21 [Ralimetinib] | MAPK14 | MAPK14
6 | Cc1nc2ccc(CN(C)c3ccc(C(=O)N[C@@H](CCC(=O)O)C(=O)O)s3)cc2c(=O)[nH]1 [Raltitrexed] | TYMS | TYMS
7 | COc1ccc(-c2nc(N3CCOCC3)c3sc(CN(C)c4ncc(C(=O)NO)cn4)cc3n2)cn1 [Fimepinostat] | HDAC1 | HDAC1
8 | CN(Cc1cnc2nc(N)nc(N)c2n1)c1ccc(C(=O)N[C@@H](CCC(=O)O)C(=O)O)cc1 [Methotrexate] | DHFR | DHFR
